Test results taken from BindingDB's records for doi:10.1016/j.bioorg.2016.11.011 (Tehran University of Medical Sciences, 2017).
Values joined by “and” are separate entries in the source; they are usually repeats but may differ in a detail not shown here. Identical values can stand only once.

Experiments:
Acetylcholinesterase = Acetylcholinesterase (Electrophorus electricus, UniProt O42275); experiment: AChE and BChE Inhibition Assay; conditions: pH 8; 25 °C
Method: (§1) In vitro anti-AChE activity was performed based on the modified Ellman's method [Ellman et al., Biochem. Pharmacol., […]]. […] Each well contained 50 μL potassium phosphate buffer (KH2PO4/K2HPO4, 0.1 M, pH 8), 25 μL prepared sample as described above, 25 μL enzyme with final concentration of 0.22 U/mL in buffer. They were preincubated for 15 min at room temperature, and then […] DTNB (3 mM in buffer) was added. […] The IC50 values were determined graphically from inhibition curves (log inhibitor concentration vs. percent of inhibition). A control experiment was performed under the same conditions without inhibitor and the blank contained buffer, water, DTNB, and substrate. The described method was also used for BChE inhibition assay.

[1] = target: Carboxylic ester hydrolase (Equus caballus, UniProt Q9N1N9); experiment: AChE and BChE Inhibition Assay; conditions: pH 8; 25 °C
Carboxylic ester hydrolase, sequence (Q9N1N9 whole entry): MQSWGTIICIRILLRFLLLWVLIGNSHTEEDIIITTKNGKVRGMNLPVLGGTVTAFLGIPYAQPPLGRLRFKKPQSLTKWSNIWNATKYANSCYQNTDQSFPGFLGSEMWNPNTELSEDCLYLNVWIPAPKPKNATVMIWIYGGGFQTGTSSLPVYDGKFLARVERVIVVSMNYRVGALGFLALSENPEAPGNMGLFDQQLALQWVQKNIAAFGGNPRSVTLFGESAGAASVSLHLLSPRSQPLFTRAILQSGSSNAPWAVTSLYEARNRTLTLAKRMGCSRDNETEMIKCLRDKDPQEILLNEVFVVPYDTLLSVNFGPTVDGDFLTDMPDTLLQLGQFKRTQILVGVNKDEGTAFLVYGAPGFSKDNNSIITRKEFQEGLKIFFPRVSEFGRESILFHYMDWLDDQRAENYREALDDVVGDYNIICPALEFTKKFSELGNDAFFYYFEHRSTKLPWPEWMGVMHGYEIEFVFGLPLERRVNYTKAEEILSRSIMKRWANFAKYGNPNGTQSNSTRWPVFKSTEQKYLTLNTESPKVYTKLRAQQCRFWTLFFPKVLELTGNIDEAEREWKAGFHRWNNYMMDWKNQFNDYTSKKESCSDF
Method: as §1

Acetylcholinesterase, sequence (O42275 whole entry): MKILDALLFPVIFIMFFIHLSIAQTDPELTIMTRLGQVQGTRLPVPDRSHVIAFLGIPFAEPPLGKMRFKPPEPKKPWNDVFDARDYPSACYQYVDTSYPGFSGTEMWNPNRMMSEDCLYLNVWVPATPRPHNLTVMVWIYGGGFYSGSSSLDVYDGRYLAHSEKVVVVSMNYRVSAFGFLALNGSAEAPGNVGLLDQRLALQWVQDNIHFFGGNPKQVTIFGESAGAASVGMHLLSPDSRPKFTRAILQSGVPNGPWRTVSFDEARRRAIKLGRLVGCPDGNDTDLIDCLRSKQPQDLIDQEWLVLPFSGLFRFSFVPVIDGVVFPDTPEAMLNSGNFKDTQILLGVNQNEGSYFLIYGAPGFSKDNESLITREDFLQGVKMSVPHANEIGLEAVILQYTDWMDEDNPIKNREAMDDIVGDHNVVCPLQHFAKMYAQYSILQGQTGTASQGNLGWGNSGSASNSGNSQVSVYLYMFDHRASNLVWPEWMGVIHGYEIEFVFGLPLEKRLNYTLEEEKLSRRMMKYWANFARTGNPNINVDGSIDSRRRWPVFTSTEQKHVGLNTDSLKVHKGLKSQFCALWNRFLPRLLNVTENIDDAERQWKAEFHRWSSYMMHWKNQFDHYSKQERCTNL

SMILES | IC50 (Acetylcholinesterase) [µM] | IC50 [1]
COc1cccc2cc(C(=O)NCc3cn(Cc4ccccc4C)nn3)c(=O)oc12 [8-Methoxy-N-((1-(2-methylbenzyl)-1H-1,2,3-triazol-4-yl)methyl)-2-oxo-2H-chromene-3-carboxamide (6l)] | 24.1 | > 100 µM
COc1cccc2cc(C(=O)NCc3cn(Cc4cccc(Cl)c4Cl)nn3)c(=O)oc12 [N-((1-(2,3-dichlorobenzyl)-1H-1,2,3-triazol-4-yl)methyl)-8-methoxy-2-oxo-2H-chromene-3-carboxamide (6n)] | 33.8 | > 100 µM
O=C(NCc1cnnn1Cc1cccc(Cl)c1Cl)c1cc2ccccc2oc1=O [N-((1-(2,3-dichlorobenzyl)-1H-1,2,3-triazol-5-yl)methyl)-2-oxo-2H-chromene-3-carboxamide (6h)] | 20.2 | 67 µM
O=C(NCc1cnnn1Cc1ccccc1Br)c1cc2ccccc2oc1=O [N-((1-(2-bromobenzyl)-1H-1,2,3-triazol-5-yl)methyl)-2-oxo-2H-chromene-3-carboxamide (6j)] | – | 31 µM and > 100 µM
COc1cccc2cc(C(=O)NCc3cn(Cc4ccccc4Cl)nn3)c(=O)oc12 [N-((1-(2-chlorobenzyl)-1H-1,2,3-triazol-4-yl)methyl)-8-methoxy-2-oxo-2H-chromene-3-carboxamide (6m)] | 15.4 | 96.1 µM
O=C(NCc1cnnn1Cc1ccccc1Cl)c1cc2ccccc2oc1=O [N-((1-(2-chlorobenzyl)-1H-1,2,3-triazol-5-yl)methyl)-2-oxo-2H-chromene-3-carboxamide (6f)] | 34 | > 100 µM
Cc1ccccc1Cn1nncc1CNC(=O)c1cc2ccccc2oc1=O [N-((1-(2-methylbenzyl)-1H-1,2,3-triazol-5-yl)methyl)-2-oxo-2H-chromene-3-carboxamide (6b)] | 78.9 | > 100 µM
COc1cccc2cc(C(=O)NCc3cn(Cc4ccc(Cl)c(Cl)c4)nn3)c(=O)oc12 [N-((1-(3,4-dichlorobenzyl)-1H-1,2,3-triazol-4-yl)methyl)-8-methoxy-2-oxo-2H-chromene-3-carboxamide (6o)] | 25.5 | > 100 µM
O=C(NCc1cnnn1Cc1ccc(Cl)c(Cl)c1)c1cc2ccccc2oc1=O [N-((1-(3,4-dichlorobenzyl)-1H-1,2,3-triazol-5-yl)methyl)-2-oxo-2H-chromene-3-carboxamide (6i)] | 16.7 | > 100 µM
O=C(NCc1cnnn1Cc1cccc(Cl)c1)c1cc2ccccc2oc1=O [N-((1-(3-chlorobenzyl)-1H-1,2,3-triazol-5-yl)methyl)-2-oxo-2H-chromene-3-carboxamide (6g)] | 92.8 | > 0.1 µM
O=C(NCc1cnnn1Cc1cccc(F)c1)c1cc2ccccc2oc1=O [N-((1-(3-fluorobenzyl)-1H-1,2,3-triazol-5-yl)methyl)-2-oxo-2H-chromene-3-carboxamide (6d)] | 48.1 | > 100 µM
O=C(NCc1cn(Cc2ccc(Br)cc2)nn1)c1cc2ccccc2oc1=O [N-((1-(4-bromobenzyl)-1H-1,2,3-triazol-4-yl)methyl)-2-oxo-2H-chromene-3-carboxamide (6k)] | – | > 100 µM and 75.3 µM
O=C(NCc1cnnn1Cc1ccc(F)cc1)c1cc2ccccc2oc1=O [N-((1-(4-fluorobenzyl)-1H-1,2,3-triazol-5-yl)methyl)-2-oxo-2H-chromene-3-carboxamide (6e)] | > 100 | > 100 µM
Cc1ccc(Cn2nncc2CNC(=O)c2cc3ccccc3oc2=O)cc1 [N-((1-(4-methylbenzyl)-1H-1,2,3-triazol-5-yl)methyl)-2-oxo-2H-chromene-3-carboxamide (6c)] | > 100 | > 100 µM
O=C(NCc1cnnn1Cc1ccccc1)c1cc2ccccc2oc1=O [N-((1-benzyl-1H-1,2,3-triazol-5-yl)methyl)-2-oxo-2Hchromene-3-carboxamide (6a)] | > 100 | > 100 µM
